Laboratory results as given in patent US20030087861A1, “Combined approach to treatment of cancer using a c-myc antisense oligomer” (priority 2001, published 2003).

Experiments:
[1] = tested on: Lewis lung carcinoma (LLC1) tumors; assay: Lewis lung carcinoma (LLC1) subcutaneous tumor model, tumor area growth and tumor mass; assay type: in vivo, C57BL/6J mice; set-up: Tumor Growth Rate (TGR): unit not given beside the values; conditions: for Tumor Mass (gm ± STE): LLC1 tumor bearing mice, IP dosing per Table 2, combinations in alternating regimen (chemotherapy days 2-4, 14-16; PMO days 6-12, 18-23), mass at euthanization; for Tumor Growth Rate (TGR): linear regression of change in tumor area day 14 to 25, slope ± standard deviation, IP dosing per Table 2, combinations in alternating regimen; for % of Saline TGR: tumor growth rate relative to saline group, combinations in alternating regimen; for antitumor effect / tumor growth (in words): single agent, or staggered (alternating) regimen with the PMO after chemotherapy
Description: Examples are described in Smith et al., 2000. The model is based on the transplantation of Lewis lung cells (LLC1), a highly tumorigenic lung carcinoma cell line, into syngeneic […] mice. LLC1 produce discernable tumors by day 4 when 200,000 cells are transplanted subcutaneously onto the right flanks of C57-BL mice. Therapeutic efficacy was evaluated based on daily caliper measurements of tumor length and width and tumor weights at the end of 25 day studies. A 20 base PMO antisense to c-myc mRNA (AVI-4126, SEQ ID NO:1) was evaluated for efficacy in the model. […] AVI-4126 was also administered i.p. (300 μg/mouse/day) in combination with chemotherapy. Co-administration of cisplatin (83 μg/mouse/day) on days 2-4 and 13-15 with AVI-4126 on days 2-8 and 13-19 had no additional effect on tumor growth inhibition versus cisplatin alone (Example 1).
Tumor cells. The Lewis lung cell line (LLC1) used in the studies described herein was derived from the Lewis lung carcinoma established in 1951 by Dr. M. R. Lewis and has been utilized for the evaluation of cancer chemotherapeutic agents Mayo, 1972; Bertram et al., 1980). Lewis lung carcinoma cells (ATCC, Manassas, Va.) were maintained in DMEF-12 medium supplemented with 10% fetal bovine serum, penicillin (100 units/mL), streptomycin (100 μg/mL), and amphotericin (0.25 μg/mL) at 37° C. in a 5% CO2/95% air humidified incubator. Cells were harvested as an approximately 70% confluent culture of log growth phase at the time of transplant and were injected as a cell suspension in media at a concentration of 200,000 cells per 100 μl injection.
Syngeneic mice. C57BL/6J mice (Simonsen, Gilroy, Calif.) weighing 22 to 24 g were housed in sterile plastic cages at the Laboratory Animal Resources Facility at Oregon State University (OSU), Corvallis, Oreg. Mice were given access to rodent chow (Harlan Teklad, Madison, Wis.) and tap water ad libitum and exposed to 12 hour light/dark cycles. All animal protocols conformed to the ethical guidelines of the 1975 Declaration of Helsinki and were approved by the ‘Institutional Animal Care and Use Committee’ of OSU.
Statistical Analysis. All data are reported as the mean ±SEM were determined by the computer program InStat2 (GraphPad, San Diego). The p values were calculated by InStat2 using ANOVA and the Tukey multiple comparison test. Graphs, linear regression, and slopes were generated using Prism v2.0 (GraphPad).
Tumor studies with AVI-4126 and Chemotherapy Following a 5 day acclimation period, C57BL/6J mice (Simonsen, Gilroy, CA) cared for as set forth above, were anesthetized with isoflurane, shaved, and injected subcutaneously in the right rear flank with approximately 200,000 viable LLC1 cells (study day 0). Injection sites were monitored daily to ensure that solid, homogeneous tumor growth was consistently obtained 4 days after LLC1 cell injection. Chemotherapy injections were prepared fresh daily before i.p injection (see Table 1). All PMO's and cisplatin (Sigma, St. Louis, Mo.) were dissolved in sterile, apyrogenic saline (Sigma) adjusted to an injection volume of 0.1 ml. A Taxol stock solution (6 mg/ml in Cremophore EL and ethanol, Bristol Myers Squibb, Syracuse, N.Y.) was diluted to 1 mg/ml in 1× PBS prior to injection. Etoposide (Sigma) stock solutions were prepared by dissolving in 70% ethanol at 11 mg/ml followed by dilution with saline to a final concentration of 5 mg/ml. 5-FU (Calbiochem) was dissolved in saline at a concentration of 12.5 mg/ml.
Animals were treated as described. Therapeutic efficacy was evaluated based on daily measurement of tumor area (length x width, cm^2) with digital calipers and tumor mass determined at the time of euthanization. Mice in all studies were euthanized by asphyxiation with CO2 on the final day of PMO treatments. […]

[2] = tested on: c-myc protein; assay: Immunoblot analysis of c-myc protein in LLC1 tumor lysates; assay type: in vivo, mouse; conditions: for effect on c-myc levels in tumor tissue (in words): compared to saline
Description: Immunoblot analysis of c-myc protein. All antibodies were obtained from Santa Cruz Biotechnology (Santa Cruz, Calif.). Three-hundred micrograms of LLC1 protein lysate was analyzed on a 5% SDS/acrylamide stacking gel with a 12% v/v sodium dodecylsulfate (SDS)/acrylamide separating gel. Gels were blotted, probed, and visualized according to standard Western blotting protocols. Membranes were probed with rabbit anti-mouse c-myc polyclonal antibodies N-262 (sc-764) or C-19 (sc-788) diluted 1:2000 in blocking buffer (Genotech) followed by goat-anti rabbit HRP-conjugated antibody (sc-2054). The relative amount of c-myc and actin protein was visualized by ECLplus (Amersham, Piscataway, N.J.) and analyzed on a Kodak 440 Image Station using 1 D Image Analysis software (Kodak, Rochester N.Y.). Membranes were then soaked in stripping buffer (Genotech) for 20 minutes at 25° C. and reprobed with a 1:2000 dilution of goat anti-mouse β-actin polyclonal antibody (sc-1616), which served as a protein loading control, followed by donkey anti-goat HRP-conjugated antibody (sc-2056).
An initial study was performed to determine AVI-4126 levels in the tumor and to evaluate sequence specific inhibition of c-myc protein levels. Tumor bearing mice 24 days post LLC1 transplant were given injections of either saline, AVI-4126 or scrambled control (100 μg/mouse IP). Tumors were excised 4 hours later and evaluated for AVI-4126 and analyzed by immunoblot for c-myc protein, as described below.
Animals were treated as described. Therapeutic efficacy was evaluated based on daily measurement of tumor area (length x width, cm^2) with digital calipers and tumor mass determined at the time of euthanization. Mice in all studies were euthanized by asphyxiation with CO2 on the final day of PMO treatments. Tumors were immediately removed, weighed and approximately 0.25 g tumor tissue was homogenized in 1.0 ml Tissue-PE lysis buffer (Genotech, St. Louis, Mo.) containing protease inhibitor cocktail tablets (Complete™ Mini EDTA-free, Boehringer-Mannheim) which were dissolved in the lysis buffer 30 minutes before tissue homogenization. Lysates were centrifuged at 15,000× g for 15 minutes at 4° C. and 150 μl aliquots of supernatant were combined 1:1 with electrophoresis sample buffer and boiled at 100° C. for 5 minutes.

[3] = set-up: species or system C57BL/6J mice; conditions: mouse, in vivo, ip
Description: HPLC detection of AVI-4126 in LLC1 tumor tissue. The presence of AVI-4126 in tumor tissue lysates (prepared 4 hours after a single injection of 100 μg of AVI-4126 into tumor bearing mice) was determined via a 5′-flouresceinyl DNA:AVI-4126 (FDNA:AVI-4126) duplex detection method developed at AVI BioPharma (Corvallis, Oreg.). Briefly, 500 ng of internal standard (10 μl of a […] of 0.025M Tris buffer, pH=8) of a 15mer internal PMO standard complementary to the FDNA probe (5′-GAGGGGCATCGTCGC-3′ (SEQ ID NO: 14)) was added to each tumor tissue lysate. The lysate was combined with 250 μl methanol and mixed thoroughly. The sample was centrifuged 10 minutes at 15,000× g and the supernatant was removed and heated to 70° C. for g 10 minutes. […]
The entire 100 μl sample was then analyzed for the presence of FDNA:AVI-4126 duplex using reverse phase HPLC with fluorescence detection. The sample was injected into a Dionex DNAPac PA-100 column (4×250) using a Varian HPLC pump (model 9010 inert) equipped with a fluorescence detector and Al-200 autosampler (100 μl injector loop volume). […] The pump gradient program was 90% A+10% B (0 min) and 55% A+45% B (20 min.) at a flow rate of 1.5 ml/min with fluorescence detection at a 494 nm (excitation) and 518 nm emission wavelengths. […]

[4] = ICP-MS detection and quantitation of platinum/cisplatin in LLC1 tumor tissue; assay type: in vivo, C57BL/6J mice; conditions: data not shown
Description: ICP-MS Detection and Quantitation of platinum/cisplatin. A 200 μL aliquot of tissue lysate (40 mg of LLC1 tumor tissue) was dissolved in 1.33 mL of aqua regia followed by a 10 fold dilution. The samples were then analyzed by ICP-MS technique for the presence of Pt according to the method of Long et al (16) by Anatek Labs (Moscow, ID).

[5] = single injection 100 μg/mouse IP, tumors excised 4 hours later, FIG. 5A

Molecule | Tumor Mass (gm ± STE) [1] | Tumor Growth Rate (TGR) [1] | % of Saline TGR [1] | also measured
CC(=O)O[C@H]1C(=O)[C@@]2(C)[C@H]([C@H](OC(=O)c3ccccc3)[C@]3(O)C[C@H](OC(=O)[C@H](O)[C@@H](NC(=O)c4ccccc4)c4ccccc4)C(C)=C1C3(C)C)[C@]1(OC(C)=O)CO[C@@H]1C[C@@H]2O [Taxol, Paclitaxel] | 1.827 ± 0.210 gm | 0.234 ± 0.023 | 114.7% | –
N.N.[Cl][Pt][Cl] [cisplatin, cis-diamminedichloroplatinum] | 0.550 ± 0.081 gm | 0.101 ± 0.011 | 49.5% | effect on c-myc levels in tumor tissue (in words) [2]: no statistical difference; necropsy appearance of tumors ([1]; cisplatin alone, and cisplatin plus co-administered AVI-4126): highly invasive and vascularized; antitumor effect / tumor growth (in words) [1]: significantly lower
COc1cc([C@@H]2c3cc4c(cc3[C@@H](O[C@@H]3O[C@@H]5CO[C@@H](C)O[C@H]5[C@H](O)[C@H]3O)[C@H]3COC(=O)[C@H]23)OCO4)cc(OC)c1O [etoposide] | 0.970 ± 0.244 gm | 0.153 ± 0.025 | 75.0% | –
AVI-4126: 20 base PMO antisense to c-myc translation start site: ACGTTGAGGGGCATCGTCGC (antisense ACGTTGAGGGGCATCGTCGC; all phosphorodiamidate morpholino (PMO)) | 1.788 ± 0.651 gm | 0.212 ± 0.031 | 103.9% | inhibition of c-myc levels compared to saline control, n-terminal antibody ([2]; band intensity normalized to β-actin, AVI-4126 alone 300 μg/mouse/day IP, FIG. 6A): 74%; inhibition of c-myc levels compared to saline control, c-terminal antibody ([2]; band intensity normalized to β-actin, AVI-4126 alone 300 μg/mouse/day IP, FIG. 6B): 61%; reduction of c-myc levels relative to saline control [2, 5]: 77%; reduction of c-myc levels relative to scrambled PMO control [2, 5]: 63%; FDNA:AVI-4126 duplex fluorescence peak in tumor tissue lysate [3]: readily detectable; degradation of AVI-4126 in tumor tissue [3]: No evidence of degradation; effect of AVI-4126 administration on platinum levels in tumor tissue [4]: did not effect platinum levels; antitumor effect / tumor growth (in words) [1]: failed to significantly reduce tumor growth
RAD51AS: control PMO, mouse RAD51 sequence: CAAGCTGCATTTGCATAGCCAT (antisense CAAGCTGCATTTGCATAGCCAT; all phosphorodiamidate morpholino (PMO)) | 1.193 ± 0.166 gm | 0.198 ± 0.017 | 97.1% | –
p21AS: control PMO, mouse p21 sequence: CATCACCAGGATTGGACATGG (antisense CATCACCAGGATTGGACATGG; all phosphorodiamidate morpholino (PMO)) | 1.260 ± 0.389 gm | 0.184 ± 0.030 | 90.2% | –
scrambled control PMO: c-myc antisense scramble control PMO: ACTGTGAGGGCGATCGCTGC (ACTGTGAGGGCGATCGCTGC; all phosphorodiamidate morpholino (PMO)) | – | – | – | effect on c-myc levels in tumor tissue (in words) [2]: no effect
